# Target: T1, full length AKT E17K (Homo sapiens, UniProt P31749, E17K)
# T1 construct: host or cells: HEK-293 (ATCC CRL-1573)
# Test: NanoBRET Target Engagement (TE) Assay
# Assay type: cell-based
# Conditions: competitive displacement of tracer in cells, read-out: AKT1 E17K IC50
# Procedure, shortened: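 Compound and tracer incubated 2 h before luminescence at donor 450 nm and acceptor 600 nm, with extracellular signal inhibited. EC50 by sigmoidal variable-slope regression.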
# T1 sequence (P31749 whole entry E17K): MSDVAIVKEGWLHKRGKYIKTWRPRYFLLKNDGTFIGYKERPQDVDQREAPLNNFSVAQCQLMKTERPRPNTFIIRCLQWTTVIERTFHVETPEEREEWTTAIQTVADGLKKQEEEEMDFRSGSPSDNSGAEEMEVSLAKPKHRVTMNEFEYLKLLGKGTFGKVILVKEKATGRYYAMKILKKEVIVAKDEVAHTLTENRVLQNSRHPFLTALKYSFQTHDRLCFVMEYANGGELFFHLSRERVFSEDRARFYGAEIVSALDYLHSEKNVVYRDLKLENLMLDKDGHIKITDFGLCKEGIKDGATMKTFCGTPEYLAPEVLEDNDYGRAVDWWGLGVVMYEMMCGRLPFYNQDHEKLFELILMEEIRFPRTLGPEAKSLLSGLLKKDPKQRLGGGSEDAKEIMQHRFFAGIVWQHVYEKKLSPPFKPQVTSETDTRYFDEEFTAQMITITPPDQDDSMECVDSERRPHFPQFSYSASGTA
row,SMILES,IC50
1,"N#Cc1nccc(NC2CCN(Cc3ccc(-n4c(-c5cccnc5N)nc5c(O)ncnc54)cc3)CC2)n1 [Example 494, 4-((1-(4-(8-(2-aminopyridin-3-yl)-6-hydroxy-9H-purin-9-yl)benzyl)piperidin-4-yl)amino)pyrimidine-2-carbonitrile]",0.6 to 10 µM
2,"N#Cc1nccc(NC2CCN(Cc3ccc(-n4c(-c5cccnc5N)nc5ccc(-c6ccc(F)cc6Cl)nc54)cc3)CC2)n1 [Example 498, 4-((1-(4-(2-(2-Aminopyridin-3-yl)-5-(2-chloro-4-fluorophenyl)-3H-imidazo[4,5-b]pyridin-3-yl)benzyl)piperidin-4-yl)amino)pyrimidine-2-carbonitrile]",0.015 to 0.06 µM
3,"Cc1cc2nc(-c3cccnc3N)n(-c3ccc(CN4CCC(Nc5ccnc(C#N)n5)CC4)cc3)c2nc1-c1ccc(F)cc1 [Example 499, 4-((1-(4-(2-(2-aminopyridin-3-yl)-5-(4-fluorophenyl)-6-methyl-3H-imidazo[4,5-b]pyridin-3-yl)benzyl)piperidin-4-yl)amino)pyrimidine-2-carbonitrile]",< 0.015 µM
4,"N#Cc1ccc2c(c1)nc(-c1cccnc1N)n2-c1ccc(CN2CCC(Nc3ccnc(C#N)n3)CC2)cc1 [Example 501, 2-(2-Aminopyridin-3-yl)-1-(4-((4-((2-cyanopyrimidin-4-yl)amino)piperidin-1-yl)methyl)phenyl)-1H-benzo[d]imidazole-5-carbonitrile]",0.015 to 0.06 µM
5,"[2H]C([2H])([2H])N(c1ccnc(C#N)n1)C1CCN(C([2H])([2H])c2ccc(-n3c(-c4cccnc4N)nc4cccnc43)cc2)CC1 [Example 502, 4-((1-((4-(2-(2-Aminopyridin-3-yl)-3H-imidazo[4,5-b]pyridin-3-yl)phenyl)methyl-d2)piperidin-4-yl)(methyl-d3)amino)pyrimidine-2-carbonitrile]",0.015 to 0.06 µM
6,"[2H]C1(Nc2ccnc(C#N)n2)CCN(Cc2ccc(-n3c(-c4cccnc4N)nc4cccnc43)cc2)CC1 [Example 503, 4-((1-(4-(2-(2-Aminopyridin-3-yl)-3H-imidazo[4,5-b]pyridin-3-yl)benzyl)piperidin-4-yl-4-d)amino)pyrimidine-2-carbonitrile]",0.015 to 0.06 µM
7,"[2H]C([2H])(c1ccc(-n2c(-c3cccnc3N)nc3cc(C)c(C)nc32)cc1)N1CCC(Nc2ccnc(C#N)n2)CC1 [Example 504, 4-((1-((4-(2-(2-Aminopyridin-3-yl)-5,6-dimethyl-3H-imidazo[4,5-b]pyridin-3-yl)phenyl)methyl-d2)piperidin-4-yl)amino)pyrimidine-2-carbonitrile]",< 0.015 µM
8,"COc1cc(-c2ccc3nc(-c4cccnc4N)n(-c4ccc(CN5CCC(Nc6ccnc(C#N)n6)CC5)cc4)c3n2)ccn1 [Example 511, 4-((1-(4-(2-(2-Aminopyridin-3-yl)-5-(2-methoxypyridin-4-yl)-3H-imidazo[4,5-b]pyridin-3-yl)benzyl)piperidin-4-yl)amino)pyrimidine-2-carbonitrile]",< 0.015 µM
9,"COc1cncc(-c2ccc3nc(-c4cccnc4N)n(-c4ccc(CN5CCC(Nc6ccnc(C#N)n6)CC5)cc4)c3n2)c1 [Example 512, 4-((1-(4-(2-(2-Aminopyridin-3-yl)-5-(5-methoxypyridin-3-yl)-3H-imidazo[4,5-b]pyridin-3-yl)benzyl)piperidin-4-yl)amino)pyrimidine-2-carbonitrile]",< 0.015 µM
10,"CC(=O)N(C)c1cccc(-c2ccc3nc(-c4cccnc4N)n(-c4ccc(CN5CCC(Nc6ccnc(C#N)n6)CC5)cc4)c3n2)c1 [Example 514, N-(3-(2-(2-Aminopyridin-3-yl)-3-(4-((4-((2-cyanopyrimidin-4-yl)amino)piperidin-1-yl)methyl)phenyl)-3H-imidazo[4,5-b]pyridin-5-yl)phenyl)-N-methylacetamide]",< 0.015 µM
11,"COc1cnccc1-c1ccc2nc(-c3cccnc3N)n(-c3ccc(CN4CCC(Nc5ccnc(C#N)n5)CC4)cc3)c2n1 [Example 515, 4-((1-(4-(2-(2-Aminopyridin-3-yl)-5-(3-methoxypyridin-4-yl)-3H-imidazo[4,5-b]pyridin-3-yl)benzyl)piperidin-4-yl)amino)pyrimidine-2-carbonitrile]",< 0.015 µM
12,"COc1ccc(-c2ccc3nc(-c4cccnc4N)n(-c4ccc(CN5CCC(Nc6ccnc(C#N)n6)CC5)cc4)c3n2)cn1 [Example 516, 4-((1-(4-(2-(2-Aminopyridin-3-yl)-5-(6-methoxypyridin-3-yl)-3H-imidazo[4,5-b]pyridin-3-yl)benzyl)piperidin-4-yl)amino)pyrimidine-2-carbonitrile]",< 0.015 µM
13,"CC(C)C(=O)Nc1cccc(-c2ccc3nc(-c4cccnc4N)n(-c4ccc(CN5CCC(Nc6ccnc(C#N)n6)CC5)cc4)c3n2)c1 [Example 518, N-(3-(2-(2-Aminopyridin-3-yl)-3-(4-((4-((2-cyanopyrimidin-4-yl)amino)piperidin-1-yl)methyl)phenyl)-3H-imidazo[4,5-b]pyridin-5-yl)phenyl)isobutyramide]",< 0.015 µM
14,"CC(C)C(=O)Nc1cccc(-c2ccc3nc(-c4cccnc4NC(=O)C(C)C)n(-c4ccc(CN5CCC(Nc6ccnc(C#N)n6)CC5)cc4)c3n2)c1 [Example 519, N-(3-(3-(4-((4-((2-cyanopyrimidin-4-yl)amino)piperidin-1-yl)methyl)phenyl)-2-(2-isobutyramidopyridin-3-yl)-3H-imidazo[4,5-b]pyridin-5-yl)phenyl)isobutyramide]",0.015 to 0.06 µM
15,"COC(=O)Nc1cccc(-c2ccc3nc(-c4cccnc4N)n(-c4ccc(CN5CCC(Nc6ccnc(C#N)n6)CC5)cc4)c3n2)c1 [Example 520, Methyl (3-(2-(2-aminopyridin-3-yl)-3-(4-((4-((2-cyanopyrimidin-4-yl)amino)piperidin-1-yl)methyl)phenyl)-3H-imidazo[4,5-b]pyridin-5-yl)phenyl)carbamate]",< 0.015 µM
16,"CN(C)c1cccc(-c2ccc3nc(-c4cccnc4N)n(-c4ccc(CN5CCC(Nc6ccnc(C#N)n6)CC5)cc4)c3n2)c1 [Example 521, 4-((1-(4-(2-(2-Aminopyridin-3-yl)-5-(3-(dimethylamino)phenyl)-3H-imidazo[4,5-b]pyridin-3-yl)benzyl)piperidin-4-yl)amino)pyrimidine-2-carbonitrile]",< 0.015 µM
17,"CC(=O)N(C)C1CCN(c2cccc(-c3ccc4nc(-c5cccnc5N)n(-c5ccc(CN6CCC(Nc7ccnc(C#N)n7)CC6)cc5)c4n3)c2)CC1 [Example 522, N-(1-(3-(2-(2-Aminopyridin-3-yl)-3-(4-((4-((2-cyanopyrimidin-4-yl)amino)piperidin-1-yl)methyl)phenyl)-3H-imidazo[4,5-b]pyridin-5-yl)phenyl)piperidin-4-yl)-N-methylacetamide]",0.015 to 0.06 µM

# Now from value to compound:
row,IC50,SMILES
1,< 0.015 µM,"N#Cc1nccc(NC2CCN(Cc3ccc(-n4c(-c5cccnc5N)nc5ccc(-c6ccccn6)nc54)cc3)CC2)n1 [Example 495, 4-((1-(4-(2-(2-Aminopyridin-3-yl)-5-(pyridin-2-yl)-3H-imidazo[4,5-b]pyridin-3-yl)benzyl)piperidin-4-yl)amino)pyrimidine-2-carbonitrile]"
2,0.015 to 0.06 µM,"N#Cc1nccc(NC2CCN(Cc3ccc(-n4c(-c5cccnc5N)nc5ccc(O)nc54)cc3)CC2)n1 [Example 496, 4-((1-(4-(2-(2-Aminopyridin-3-yl)-5-hydroxy-3H-imidazo[4,5-b]pyridin-3-yl)benzyl)piperidin-4-yl)amino)pyrimidine-2-carbonitrile]"
3,0.015 to 0.06 µM,"N#Cc1nccc(NC2CCN(Cc3ccc(-n4c(-c5cccnc5N)nc5ccc(N)nc54)cc3)CC2)n1 [Example 497, 4-((1-(4-(5-Amino-2-(2-aminopyridin-3-yl)-3H-imidazo[4,5-b]pyridin-3-yl)benzyl)piperidin-4-yl)amino)pyrimidine-2-carbonitrile]"
4,< 0.015 µM,"N#Cc1ccc2nc(-c3cccnc3N)n(-c3ccc(CN4CCC(Nc5ccnc(C#N)n5)CC4)cc3)c2c1 [Example 500, 2-(2-Aminopyridin-3-yl)-1-(4-((4-((2-cyanopyrimidin-4-yl)amino)piperidin-1-yl)methyl)phenyl)-1H-benzo[d]imidazole-6-carbonitrile]"
5,0.06 to 0.6 µM,"N#Cc1nccc(NC2CCN(Cc3ccc(-n4c(-c5cccnc5N)nc5cncnc54)cc3)CC2)n1 [Example 505, 4-((1-(4-(8-(2-Aminopyridin-3-yl)-9H-purin-9-yl)benzyl)piperidin-4-yl)amino)pyrimidine-2-carbonitrile]"
6,0.015 to 0.06 µM,"N#Cc1nccc(NC2CCN(Cc3ccc(-n4c(-c5cccnc5N)nc5ccc(CO)nc54)cc3)CC2)n1 [Example 508, 4-((1-(4-(2-(2-Aminopyridin-3-yl)-5-(hydroxymethyl)-3H-imidazo[4,5-b]pyridin-3-yl)benzyl)piperidin-4-yl)amino)pyrimidine-2-carbonitrile]"
7,< 0.015 µM,"N#Cc1nccc(NC2CCN(Cc3ccc(-n4c(-c5cccnc5N)nc5ccc(CF)nc54)cc3)CC2)n1 [Example 509, 4-((1-(4-(2-(2-Aminopyridin-3-yl)-5-(fluoromethyl)-3H-imidazo[4,5-b]pyridin-3-yl)benzyl)piperidin-4-yl)amino)pyrimidine-2-carbonitrile]"
8,< 0.015 µM,"N#Cc1nccc(NC2CCN(Cc3ccc(-n4c(-c5cccnc5N)nc5ccc(N6CCCC6)nc54)cc3)CC2)n1 [Example 510, 4-((1-(4-(2-(2-Aminopyridin-3-yl)-5-(pyrrolidin-1-yl)-3H-imidazo[4,5-b]pyridin-3-yl)benzyl)piperidin-4-yl)amino)pyrimidine-2-carbonitrile]"
9,< 0.015 µM,"C#Cc1ccc2nc(-c3cccnc3N)n(-c3ccc(CN4CCC(Nc5ccnc(C#N)n5)CC4)cc3)c2n1 [Example 513, 4-((1-(4-(2-(2-Aminopyridin-3-yl)-5-ethynyl-3H-imidazo[4,5-b]pyridin-3-yl)benzyl)piperidin-4-yl)amino)pyrimidine-2-carbonitrile]"
10,< 0.015 µM,"N#Cc1nccc(NC2CCN(Cc3ccc(-n4c(-c5cccnc5N)nc5ccc(-c6cccc(N)c6)nc54)cc3)CC2)n1 [Example 517, 4-((1-(4-(5-(3-Aminophenyl)-2-(2-aminopyridin-3-yl)-3H-imidazo[4,5-b]pyridin-3-yl)benzyl)piperidin-4-yl)amino)pyrimidine-2-carbonitrile]"

# From patent publication US12209087B2, “AKT1 modulators” (Alterome Therapeutics, Inc., priority 2022, dated 2025)
